We go through nine compounds from patent US9365522B2, “Pyrazole amide derivative” (AMGEN INC., priority 2015, dated 2016).

The target in the assay is T1, human RORγ-LBD (Homo sapiens, UniProt P51449).
T1 construct: made in house; host or cells: E. coli (BL-21)
T1 sequence (P51449 262-518): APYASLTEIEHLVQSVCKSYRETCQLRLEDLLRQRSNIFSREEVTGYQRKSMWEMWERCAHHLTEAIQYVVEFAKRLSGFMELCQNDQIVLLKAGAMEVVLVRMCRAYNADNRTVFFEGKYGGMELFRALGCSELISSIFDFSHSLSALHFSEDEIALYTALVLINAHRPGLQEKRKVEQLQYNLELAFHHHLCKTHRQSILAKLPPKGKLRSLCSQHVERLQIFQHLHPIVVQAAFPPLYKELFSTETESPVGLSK
The assay is described as follows: ROR gamma coactivator peptide recruitment Alphascreen assay (RORγ-LBD binding to GRIP1 coactivator peptide). The assay is classed as biochemical. The conditions noted are these: 5 nM human RORγ-LBD, 30 nM 7-β-hydroxycholesterol, 50 nM biotinylated GRIP1 coactivator peptide, overnight incubation at room temperature; read-out: result (pIC50, RORγ coactivator peptide recruitment Alphascreen assay) (converted). Summed up:
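Alphascreen proximity read-out after overnight room-temperature incubation, yielding pIC50 from 1-in-2 compound series (2.5% DMSO final). Mixture: 50 nM biotin-GRIP1 peptide, 30 nM 7-β-hydroxycholesterol agonist, 5 nM recombinant 6×His:Flag human RORγ-LBD (aa 262-518), 50 mM HEPES pH 7.4.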
In general terms: Alpha assays give light when donor and acceptor beads are brought close together.
On to `Cc1cc(Cl)c(C(=O)CN(CC2CCCCC2)C(=O)c2cnn([C@H]3CC[C@](C)(C(=O)O)CC3)c2C(F)(F)F)c(Cl)c1` [Example 533, trans-4-(4-((cyclohexylmethyl)(2-(2,6-dichloro-4-methylphenyl)-2-oxoethyl)carbamoyl)-5-(trifluoromethyl)-1H-pyrazol-1-yl)-1-methylcyclohexanecarboxylic acid], for which the IC50 was 1.48 nM.

With `CC1(C)CCC(N(CCc2c(Cl)cccc2Cl)C(=O)c2cnn([C@H]3CC[C@H](C(=O)O)CC3)c2C(F)(F)F)CC1` [Example 534, trans-4-(4-((2-(2,6-dichlorophenyl)ethyl)(4,4-dimethylcyclohexyl)carbamoyl)-5-(trifluoromethyl)-1H-pyrazol-1-yl)cyclohexanecarboxylic acid], the IC50 was 7.94 nM.

As to `Cc1cc(Cl)c(C(=O)CN(CC2CCC(C)(C)CC2)C(=O)c2cnn([C@H]3CC[C@H](C(=O)O)CC3)c2C(F)(F)F)c(Cl)c1` [Example 535, trans-4-(4-((2-(2,6-dichloro-4-methylphenyl)-2-oxoethyl)((4,4-dimethylcyclohexyl)methyl)carbamoyl)-5-(trifluoromethyl)-1H-pyrazol-1-yl)cyclohexanecarboxylic acid], the IC50 was 1.32 nM.

As for `Cc1cc(Cl)c(C(=O)CN(C(=O)c2cnn([C@H]3CC[C@H](C(=O)O)CC3)c2C(F)(F)F)[C@H]2C[C@H](C(C)(C)C)C2)c(Cl)c1` [Example 536, trans-4-(4-((2-(2,6-dichloro-4-methylphenyl)-2-oxoethyl)(trans-3-(2-methyl-2-propanyl)cyclobutyl)carbamoyl)-5-(trifluoromethyl)-1H-pyrazol-1-yl)cyclohexanecarboxylic acid], the IC50 was 9.55 nM.

With `Cc1cc(Cl)c(C(=O)CN(CC2CCCCC2)C(=O)c2cnn([C@H]3CC[C@H](C(=O)O)CC3)c2C(F)(F)F)c(Cl)c1` [Example 537, trans-4-(4-((cyclohexylmethyl)(2-(2,6-dichloro-4-methylphenyl)-2-oxoethyl)carbamoyl)-5-(trifluoromethyl)-1H-pyrazol-1-yl)cyclohexanecarboxylic acid], the IC50 is 2.24 nM.

For `CC(C)(C)CN(CC(=O)c1c(Cl)cnc2ccccc12)C(=O)c1cnn([C@H]2CC[C@](C)(C(=O)O)CC2)c1C(F)(F)F` [Example 538, trans-4-(4-((2-(3-chloro-4-quinolinyl)-2-oxoethyl)(2,2-dimethylpropyl)carbamoyl)-5-(trifluoromethyl)-1H-pyrazol-1-yl)-1-methylcyclohexanecarboxylic acid], the IC50 is 112 nM.

Consider `O=C(CN(Cc1ccc(F)cc1)C(=O)c1cnn([C@H]2CC[C@H](C(=O)O)CC2)c1C(F)(F)F)c1c(Cl)cnc2ccccc12` [Example 539, trans-4-(4-((2-(3-chloro-4-quinolinyl)-2-oxoethyl)(4-fluorobenzyl)carbamoyl)-5-(trifluoromethyl)-1H-pyrazol-1-yl)cyclohexanecarboxylic acid], for which the IC50 is 89.1 nM.

For `O=C(CN(Cc1ccc(Cl)cc1)C(=O)c1cnn([C@H]2CC[C@H](C(=O)O)CC2)c1C(F)(F)F)c1c(Cl)ccc(F)c1Cl` [Example 541, trans-4-(4-((4-chlorobenzyl)(2-(2,6-dichloro-3-fluorophenyl)-2-oxoethyl)carbamoyl)-5-(trifluoromethyl)-1H-pyrazol-1-yl)cyclohexanecarboxylic acid], the IC50 is 3.16 nM.

For the compound `Cc1cc(Cl)c(C(=O)CN(CC(C)(C)C)C(=O)c2cnn([C@H]3CC[C@H](C(=O)O)CC3)c2C(F)(F)F)c(Cl)n1` [Example 542, trans-4-(4-((2-(2,4-dichloro-6-methyl-3-pyridinyl)-2-oxoethyl)(2,2-dimethylpropyl)carbamoyl)-5-(trifluoromethyl)-1H-pyrazol-1-yl)cyclohexanecarboxylic acid], the IC50 was 79.4 nM.
